What all share (settings): 72 h
Assay [1] deals with U2OS. The experiment in a line: fractional viability (live cells / total cells); higher = less cell death. The protocol: (§1)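 U2OS::Nuc-mKate2 cells seeded in 96-well plates and treated with eight- to ten-point half-log or log dilutions of drug in the presence of 50 nM SYTOX Green. Live (mKate2+) and dead (SYTOX+) cells were counted by IncuCyte STACK live-cell microscopy at 72 h; biological triplicates. GR is the normalised growth-rate inhibition value (Hafner 2016; 1 = untreated growth, <0 = population shrinking). FV is live/(live+dead) cells, not normalised.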

Assay [2] concerns U2OS. The experiment in a line: drug GRADE (percent of response due to cell death) (% (0-100)); higher = more death-driven response. The protocol:
(§2)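 U2OS cells treated with full dose titrations of drug; live and dead cells counted by STACK microscopy (mKate2 nuclei, SYTOX Green) at 72 h, biological triplicates. GR and FV dose responses were fitted with 4-parameter logistic models (GR lower bound -1). GRADE (0-100) is the rescaled angle of a linear fit of FV versus GR at doses with GR >= 0, giving the percentage of the response due to cell death.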

Assay [3] has as its system U2OS. Briefly: GRmin (fitted minimal GR value at highest effect) (GR value (dimensionless)); higher = less efficacious. Here is the method:
as §2

Assay [4] has as its system U2OS. The experiment in a line: normalized growth rate inhibition value (GR) relative to untreated cells (GR value (dimensionless, 1 = untreated growth)); higher = less growth inhibition. The protocol: as §1
Assay [5] deals with U2OS. Briefly: GR50 (concentration giving GR = 0.5). Here is the method:
as §2

The text below walks through data of the supplement of paper PMC7394473.

As for `CNC(=O)c1ccccc1Sc1ccc2c(/C=C/c3ccccn3)n[nH]c2c1` [Axitinib], the fractional viability in the assay with U2OS [1] (0.01 µM) stood at 0.977; with U2OS [1] (0.0316 µM), 0.978; in the assay on U2OS [1] (0.1 µM), 0.97; with U2OS [1] (0.316 µM), 0.972; in the assay with U2OS [1] (1 µM) it was 0.956; in the assay on U2OS [1] (3.16 µM), 0.788. Moreover, the fractional viability in the assay with U2OS [1] (10 µM) is 0.949; with U2OS [1] (31.6 µM), 0.91. In addition, in the assay on U2OS [2], the “drug GRADE” value was 32.1. The molecule further showed a GRmin in the assay on U2OS [3] of 0.534. Moreover, the “normalized growth rate inhibition value” was 0.956 in the assay on U2OS [4] (0.01 µM); 0.956 with U2OS [4] (0.0316 µM); 0.887 with U2OS [4] (0.1 µM); 0.994 in the assay with U2OS [4] (0.316 µM); 0.822 in the assay on U2OS [4] (1 µM); 0.223 with U2OS [4] (3.16 µM). Further, the entries for the “normalized growth rate inhibition value” in the assay on U2OS [4] (10 µM) and in the assay on U2OS [4] (31.6 µM) were 0.733 and 0.643, respectively.
In the case of `Cc1c(N)nc([C@H](CC(N)=O)NC[C@H](N)C(N)=O)nc1C(=O)N[C@H](C(=O)N[C@H](C)[C@@H](O)[C@H](C)C(=O)N[C@H](C(=O)NCCc1nc(-c2nc(C(=O)NCCC[S+](C)C)cs2)cs1)[C@@H](C)O)[C@@H](OC1OC(CO)C(O)C(O)C1OC1OC(CO)C(O)C(OC(N)=O)C1O)c1cnc[nH]1` (some centres undefined) [Bleomycin], in the assay with U2OS [5], the GR50 is 1.15 µM. Further, the fractional viability amounted to 0.989 with U2OS [1] (0.00100578 µM); 0.989 in the assay with U2OS [1] (0.00317827 µM); 0.99 with U2OS [1] (0.0100433 µM); 0.991 in the assay with U2OS [1] (0.0317369 µM); 0.987 in the assay with U2OS [1] (0.100289 µM); 0.982 in the assay on U2OS [1] (0.316912 µM). Also, the values for the fractional viability in the assay with U2OS [1] (1.00144 µM), in the assay with U2OS [1] (3.16456 µM) and in the assay with U2OS [1] (10 µM) were 0.972, 0.968 and 0.947, respectively. In addition, the “drug GRADE” value in the assay on U2OS [2] is 6.06. In the assay on U2OS [3], this molecule showed a GRmin of 0.0459. For the same molecule, the “normalized growth rate inhibition value” amounted to 1.12 with U2OS [4] (0.00100578 µM); 0.986 in the assay with U2OS [4] (0.00317827 µM); 1.11 in the assay with U2OS [4] (0.0100433 µM); 1.03 in the assay with U2OS [4] (0.0317369 µM); 0.88 in the assay on U2OS [4] (0.100289 µM); 0.888 in the assay with U2OS [4] (0.316912 µM). Also, the “normalized growth rate inhibition value” with U2OS [4] (1.00144 µM) was determined as 0.552; in the assay on U2OS [4] (3.16456 µM) it was 0.195; in the assay on U2OS [4] (10 µM), 0.0892.
`COc1cc2nccc(Oc3ccc(NC(=O)C4(C(=O)Nc5ccc(F)cc5)CC4)cc3)c2cc1OC` [Cabozantinib] returned a GR50 with U2OS [5] of 2.79 µM. Also, the fractional viability in the assay with U2OS [1] (0.00100578 µM) was determined as 0.984; with U2OS [1] (0.00317827 µM), 0.986; with U2OS [1] (0.0100433 µM), 0.985; with U2OS [1] (0.0317369 µM) it was 0.981; in the assay on U2OS [1] (0.100289 µM), 0.979; with U2OS [1] (0.316912 µM), 0.977. Moreover, the fractional viability in the assay with U2OS [1] (1.00144 µM) worked out at 0.968; in the assay with U2OS [1] (3.16456 µM) it was 0.917; with U2OS [1] (10 µM), 0.647. For the same molecule, the “drug GRADE” value in the assay on U2OS [2] was 9.76. Moreover, the “normalized growth rate inhibition value” in the assay on U2OS [4] (0.00100578 µM) came out at 1.02; in the assay with U2OS [4] (0.00317827 µM) it was 0.963; with U2OS [4] (0.0100433 µM), 1.03; in the assay with U2OS [4] (0.0317369 µM), 1.07; in the assay on U2OS [4] (0.100289 µM) it was 0.938; in the assay with U2OS [4] (0.316912 µM), 0.954. Moreover, the “normalized growth rate inhibition value” with U2OS [4] (1.00144 µM) is 0.843; in the assay on U2OS [4] (3.16456 µM), 0.443; with U2OS [4] (10 µM) it was -0.338.
Turning to `COc1cc2c(Oc3ccc4[nH]c(C)cc4c3F)ncnc2cc1OCCCN1CCCC1` [Cediranib], the GR50 in the assay on U2OS [5] was 7.19 µM. Also, the fractional viability in the assay on U2OS [1] (0.00100578 µM) was 0.987; in the assay on U2OS [1] (0.00317827 µM), 0.986; with U2OS [1] (0.0100433 µM), 0.986; in the assay on U2OS [1] (0.0317369 µM), 0.988; in the assay with U2OS [1] (0.100289 µM), 0.986; with U2OS [1] (0.316912 µM), 0.987. In addition, the fractional viability with U2OS [1] (1.00144 µM) came to 0.974; in the assay with U2OS [1] (3.16456 µM), 0.966; in the assay with U2OS [1] (10 µM), 0.686. Moreover, in the assay on U2OS [2], the “drug GRADE” value is 55.1. The “normalized growth rate inhibition value” was 0.951 in the assay on U2OS [4] (0.00100578 µM); 1.04 with U2OS [4] (0.00317827 µM); 1.11 in the assay on U2OS [4] (0.0100433 µM); 1.04 in the assay with U2OS [4] (0.0317369 µM); 0.987 with U2OS [4] (0.100289 µM); 1.07 with U2OS [4] (0.316912 µM). In addition, the “normalized growth rate inhibition value” was 0.861 in the assay with U2OS [4] (1.00144 µM), 0.837 with U2OS [4] (3.16456 µM) and 0.308 in the assay on U2OS [4] (10 µM).
